Data published in patent publication US12390423B2 (priority 2019, dated 2025).
“Also recorded” adds a separate entry of the source.

How the values were obtained:
[1] = Complete blood count and plasma FFA/TAG in DIO mice; format: in vivo
Method: Complete blood count with differential (CBC w/diff) analysis was done on 500 μL of whole blood by the animal health laboratory at the University of Guelph. Plasma insulin, FFAs, and triacylglycerols (TAGs) were measured using a rat/mouse insulin ELISA kit (Millipore, Rat/Mouse Insulin Detection kit), FFA fluorometric assay kit (Cayman, MI, USA), and the TAG colorimetric assay kit (Cayman, MI, USA), respectively. Manufacturer's protocols were followed for all kits.

INS-1 (832/13) cells [2] = experiment: Fatty acid oxidation ([1-14C]-palmitate) in INS-1 (832/13) cells; format: cell-based, rat; conditions: 25 μM AvoB, 0.5 mM palmitate-BSA/1 mM L-carnitine, 24 h
Method: FAO in cell lines was determined using established methods. […] [1-^14C]-palmitate was prepared and applied to cells as follows: purchased stock supplied in ethanol (PerkinElmer, MA, USA) was dried in vacuo and then re-suspended in a solution containing unlabeled carrier in BSA to yield a mixture of 7% BSA [w/v], 2.5 mM palmitate with [1-^14C]-palmitate at a final concentration of 10 μCi/mL. Following a 16 hour incubation at 37° C., the solution containing radiolabeled palmitate was diluted with respective serum free cell culture media (low glucose RPMI media for INS-1 (832/13) cells and low glucose DMEM for C2C12 myotubes) containing 1 mM L-carnitine to a final concentration of 0.3% BSA, 100 μM palmitate, and 0.4 μCi/mL [1-^14C]-palmitate. Following incubation of treated cells with [1-^14C]-palmitate, 400 μL of well media was transferred to acidification vials containing perchloric acid and capped with CO2 filter traps impregnated with 1M NaOH. […] The CO2 trap was transferred to scintillation vials containing 4 mL of scintillation fluid and complete FAO was quantified using a Tri-Carb 2910 TR liquid scintillation analyzer (PerkinElmer). The amount of radioactivity in the media was also determined after pelleting cells and debris (14,000×g, 10 min); this quantified acid soluble metabolites (ASMs), an indirect measure of incomplete FAO.

[3] = Intraperitoneal glucose and insulin tolerance tests (GTT, ITT) and HOMA-IR in DIO mice; format: in vivo, C57BL/6J mice; conditions: HFD mice, AvoB 100 mg/kg b.w. twice weekly
Method: Intraperitoneal glucose and insulin tolerance tests (GTT and ITT) were performed 8 hours after food withdrawal. For GTT, a glucose dose of 1.5 g/kg was used for mice on both HFD and standard diet. For ITT, an insulin (Humulin, Eli Lilly, USA) dose of 1 U/kg and 0.25 U/kg was used for mice on HFD and standard diet, respectively. Blood glucose levels were determined at 0, 10, 20, 30, 60, and 90 minutes after glucose/insulin administration via tail bleed using the OneTouch Blood Ultra 2 glucose meters (LifeScan Europe, Switzerland).
The homeostasis model assessment was used to calculate the insulin resistance (HOMA-IR) index^60 using the values of fasting plasma glucose (FPG) and fasting plasma insulin (FPI) as follows: […]; HOMA-IR=FPGxFPI/22.5, with FPG expressed as mmol/L and FPI as mIU/L.

[4] = Avocatin B oral consumption pilot clinical study (Phase I, NCT03898505)
Method: A single center, double-blind, placebo-controlled, randomized, pilot clinical study was executed to determine the safety of consuming 50 mg (equivalent to consuming a quarter Hass avocado pulp) or 200 mg (equivalent to consuming one Hass avocado pulp) AvoB per day for 60 days in healthy human participants (NCT03898505).
The investigational product was approved by Health Canada (natural product number (NPN) 80074296). To create the product, freeze-dried avocado pulp powder was sourced from Avocado Oil New Zealand Ltd., (Tauranga, New Zealand) and tested for absolute quantities of AvoB per gram of powder using a validated analytical method^61. Clinical trial material was then standardized to contain low dose (50 mg) or high dose (200 mg) AvoB (FIG. 9). The placebo product was formulated similarly to the investigational product except it only contained the non-medicinal food-grade ingredients used in the test product and other excipients that were used to simulate appearance, smell, texture and taste of the investigational product. Participants in every group consumed 40 g of material per day for 60 days by dissolving/blending the product in 12-16 ounces of a smoothie like diluent (e.g., milk (with or without lactose), soy milk, coconut milk, or fruit juice of the participant's choice). All three products were approximately matched for total calories per serving.
Healthy volunteers (13 males and 17 females; age range 20-54 years, BMI range 19.1-29.9) were enrolled in the study. Exclusion criteria were: presence of active clinical disease and history of diabetes, hypertension, dyslipidemia, major depressive disorders, chronic liver disorders, kidney disorders, or blood disorders. […] Primary outcome was the analysis of adverse experiences (AEs) measured throughout the study. Secondary outcomes were to ascertain safety and tolerability which were assessed through clinically relevant changes in standard laboratory evaluations (blood chemistry and hematology) measured on days 0, 30 and 60. Body mass index (BMI) and glycated hemoglobin (HbA1c) were also measured as part of secondary outcomes. […]
Mean change from baseline at day 30 and 60 for all laboratory evaluations and body weight were analysed by the non-parametric Kruskal-Wallis—One-Way Analysis of Variance on Ranks. using GraphPad Prism 6.0 (GraphPad Software, USA) where differences with p<0.05 were considered to be statistically significant. AEs were tabulated (for all randomized patients who received at least one dose of study supplements) and analyzed using Fisher's exact test of independence in Statistical Analysis System (SAS) university edition where differences with p<0.05 were considered to be statistically significant.

INS-1 (832/13) cells [5] = experiment: Glucose oxidation (D-[14C(U)]-glucose) in INS-1 (832/13) cells; format: cell-based, rat; conditions: 25 μM AvoB, lipotoxic conditions, vs palmitate only
Method: C2C12 myotubes and INS-1 (832/13) cells treated as in the FAO assays described above and then incubated with D-[^14C(U)]-glucose (0.58 μC/mL) and unlabeled glucose (final glucose concentration 200 μM) for 4 h subsequent to which [^14C]—CO2 (representing complete glucose oxidation) and ASMs (representing incomplete glucose oxidation) were captured and quantified as described in the FAO method. For C2C12 myotubes, glucose oxidation and uptake was measured with and without a 30 min pre-incubation with 100 nM insulin to determine basal and insulin-mediated glucose oxidation or uptake, respectively.

[6] = ad libitum HFD mice, AvoB 100 mg/kg b.w. twice weekly, vs control-HFD, endpoint

avocatin B [AvoB]
Blood markers of toxicity (CBC w/diff) ([1]; HFD mice, AvoB 100 mg/kg b.w. twice weekly for 5 weeks, study endpoint): no effect on blood markers of toxicity | Plasma free fatty acids (FFA) [1, 6]: increased plasma levels of FFA | Plasma triacylglycerols (TAG) [1, 6]: increased | Complete FAO ([1-14C]-palmitate oxidation to CO2) (INS-1 (832/13) cells [2]): inhibited complete FAO | HOMA-IR index [3]: comparable to lean, STD mice | Glucose tolerance (GTT, AUC) ([3]; vs HFD-control, i.p. glucose 1.5 g/kg): significantly improved glucose tolerance | Whole body insulin sensitivity (ITT, AUC) ([3]; vs HFD-control, i.p. insulin): greater insulin sensitivity | Body weight change between baseline and day 30 ([4]; both AvoB supplemented groups relative to placebo, trend, not statistically significant (p=0.10)): decreases in body weight | Change from baseline in body mass index or glycated hemoglobin (HbA1c) ([4]; either AvoB treated group compared to placebo): No clinically relevant changes from baseline | Overall tolerability / toxicity (adverse events) ([4]; healthy human participants, 50 or 200 mg AvoB/day for 60 days): generally well-tolerated; also recorded: exerted no toxicity | Glucose oxidation (D-[14C(U)]-glucose to CO2) (INS-1 (832/13) cells [5]): greater glucose oxidation compared to cells treated with palmitate only
